The target of this test is T1, monoamine oxidase A (MAO-A) (Homo sapiens, UniProt P21397).
T1 construct: gene MAOA; recombinant MAO-A
T1 sequence (P21397 1-527): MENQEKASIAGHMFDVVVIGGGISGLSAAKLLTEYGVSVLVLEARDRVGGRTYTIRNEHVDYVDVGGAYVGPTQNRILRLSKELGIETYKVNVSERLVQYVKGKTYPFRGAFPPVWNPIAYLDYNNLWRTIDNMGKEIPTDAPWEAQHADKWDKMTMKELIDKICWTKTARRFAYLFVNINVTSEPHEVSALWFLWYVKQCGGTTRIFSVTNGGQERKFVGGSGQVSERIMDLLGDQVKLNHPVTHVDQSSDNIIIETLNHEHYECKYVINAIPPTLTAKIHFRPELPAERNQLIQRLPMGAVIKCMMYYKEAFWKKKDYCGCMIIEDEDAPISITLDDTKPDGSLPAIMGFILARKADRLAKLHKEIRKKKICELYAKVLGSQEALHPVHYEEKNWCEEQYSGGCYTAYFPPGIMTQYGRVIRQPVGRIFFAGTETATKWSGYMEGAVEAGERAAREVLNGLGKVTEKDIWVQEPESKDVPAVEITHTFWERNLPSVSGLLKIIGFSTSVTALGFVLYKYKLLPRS
Kind of test: fluorometric Ampliflu Red/HRP assay with tyramine; Lineweaver-Burk kinetics (IC50 also […]). Type of test: biochemical.

The Ki is a measure of affinity in units of concentration, obtained from inhibition or displacement. Higher therefore signals a looser hold on the target. `S=C(NN=Cc1ccc(Sc2ccc(Cl)cc2)cc1)NC1CCCCC1` [B24, N-Cyclohexyl-2-[4-[(4-chlorophenyl)thio]benzylidene]hydrazine-1-carbothioamide] yielded a Ki of 0.142 µM.

Values taken from article PMC6017703, “Synthesis and Biological Evaluation of New Thiosemicarbazone Derivative Schiff Bases as Monoamine Oxidase Inhibitory Agents” (Molecules : A Journal of Synthetic Chemistry and Natural …, 2017).
